Tests used:
[1] = tested on: trypsin-like GAS protease; assay: Degradation of IL-8 by JS95 supernatant (Western blot, ELISA); format: biochemical, Group A Streptococcus (GAS); settings: for IL-8 degradation (ELISA): JS95 supernatant pretreated 30 min 37° C.: 0.3 μM aprotinin, 1 mM benzamidine, 100 μg/ml soybean trypsin inhibitor, FIG. 15A
Protocol: […] was grown in the absence and presence of SilCR (50 μg/ml). IL-8 was incubated with the indicated supernatant fractions and then subjected to 18% SDS-PAGE. The separated protein bands were electro-transferred to a nitrocellulose membrane. Anti-IL-8 antibody and a secondary antibody conjugated to horseradish peroxidase were used to detect IL-8. The number of the lane represents incubation of IL-8 with: 1, DMEM+FCS (control); 2, JS95 supernatant; 3, JS95 supernatant grown in the presence of SilCR; 4, JS95 supernatant, pretreated with pefabloc SC; 5, supernatant of JS95 grown in the absence of SilCR, then 50 μg/ml of SilCR was added to the degradation assay.
15A The column numbers represent the ELISA results after incubation of IL-8 with: 1, DMEM+FCS (control); and the supernatants of: 2, JS95; 3, JS95 grown in the presence of SilCR; 4, JS95 pretreated with aprotenin; 5, JS95 pretreated with soybean trypsin inhibitor; 6, JS95 pretreated with benzamidine. The background of the ELISA assay (0.08±0.004) was subtracted from the shown results. The data represent the mean ± SD, of three separate experiments.
(§1) A. Cell culture of JS95 strain was grown in THY to an OD600 of 0.2. To determine the effect of SilCR on chemokine proteolysis, the culture was split into two equal fractions, of which one received SilCR (25 μg/ml). Both fractions were further incubated until they reached an OD600 of 0.3. Bacteria were washed twice with sterile PBS and once with DMEM containing 10% FCS. The washed pellets were re-suspended in DMEM supplemented with FCS to their original volumes. SilCR (50 μg/ml) was added to the fraction that was grown in the presence of SilCR, and the two fractions were further incubated for 1 h at 37° C. Supernatants were collected after centrifugation. The proteolysis reaction contained: 0.08 ml of each supernatant, 100 ng of recombinant human IL-8/CXCL8 (R&D systems, Minneapolis, Minn.) or 30 ng of recombinant murine MIP-2 (R& D systems, Minneapolis, Minn.), 20 mM MOPS pH=7.2 in a final volume of 0.1 ml. The reaction was conducted for 1 h at 37° C., and stopped by boiling for 1 min.
(§2) B. For testing protease inhibitors, the supernatants were pre-incubated with the inhibitor for 30 min at 37° C., followed by the proteolysis reaction. The following concentrations of inhibitors were used: 4 mM pefabloc SC; 0.5 mM PMSF; 0.3 μM aprotinin; 1 mM benzamidine; 100 μg/ml soybean trypsin inhibitor (STI).
C. Proteolysis of chemokines was determined by ELISA and Dot-blot. IL-8 content was quantified by ELISA using the Quantikine kit for determination of human IL-8 (R&D Systems, Minneapolis, Minn.) according to the manufacturer's instructions.

[2] = tested on: trypsin-like GAS protease; assay: Degradation of MIP-2 by JS95 supernatant (dot blot); format: biochemical, Group A Streptococcus (GAS); settings: pretreatment of JS95 supernatant: 4 mM pefabloc SC; 0.3 μM aprotinin; 1 mM benzamidine; 100 μg/ml STI
Protocol: 15B. The dots in the control panel represent MIP-2 that was incubated in DMEM+FCS, in the absence of JS95 supernatant and spotted at the following doses: 30, 15, 7.5, 3.75 and 1.87 ng (from left to right). The dots in the lower panel were generated in the same way, except that MIP-2 was previously incubated with JS95 supernatant.
as §1, §2
Samples of 50 μl from the proteolysis reaction were diluted in PBS to a final volume of 0.5 ml and passed through a 96-wells dot-blotter onto a 0.2-μm-nitrocellulose membrane. Detection of MIP-2 was performed using anti-mouse MIP-2 polyclonal antibodies (R&D Systems Minneapolis, Minn.) followed by addition of anti-mouse IgG-HRP antibody. Dots were detected using the SuperSignal West Pico chemiluminescent detection kit (Pierce, Rockford, Ill.).

For `N=C(N)c1ccccc1` [benzamidine], the “IL-8 degradation (ELISA)” value [1] was “completely abrogated” and the MIP-2 degradation [2] was “blocked”.

`Cl.NCCc1ccc(S(=O)(=O)F)cc1` [pefabloc SC] was tested, and the “IL-8 degradation (Western blot)” value ([1]; JS95 supernatant pretreated 30 min 37° C. with 4 mM pefabloc SC, FIG. 14) was “almost completely abolished” and the MIP-2 degradation [2] was “blocked”.

For aprotinin, the “IL-8 degradation (ELISA)” value [1] was “completely inhibited” and the MIP-2 degradation [2] was “blocked”.

In the case of soybean trypsin inhibitor, the “IL-8 degradation (ELISA)” value [1] is reported as “completely abrogated” and the MIP-2 degradation [2] is reported as “blocked”.

— patent publication US20070071773A1, “Compositions and methods for the treatment and prophylaxis of infections caused by gram positive bacteria” (priority 2002, published 2007)
